Converted amounts (≈) assume the structure as drawn.
Key:
Format in all cases: functional
Enterococcus faecalis = experiment: Antimicrobial activity against Enterococcus faecalis ATCC 29212 after 20 hrs by broth microdilution method; conditions: ATCC 29212, 20 h
Streptococcus pneumoniae = experiment: Antimicrobial activity against Streptococcus pneumoniae ATCC 49619 after 20 hrs by broth microdilution method; conditions: ATCC 49619, 20 h
Haemophilus influenzae = experiment: Antimicrobial activity against Haemophilus influenzae ATCC 49247 after 20 hrs by broth microdilution method; conditions: ATCC 49247, 20 h
Staphylococcus aureus = experiment: Antimicrobial activity against Staphylococcus aureus ATCC 29213 after 20 hrs by broth microdilution method; conditions: ATCC 29213, 20 h
Clostridioides difficile = experiment: Antimicrobial activity against Clostridioides difficile ATCC 43255 under anaerobic condition for 42 to 48 hrs by agar dilution method

| MIC (Enterococcus faecalis) [µg/mL] | MIC (Streptococcus pneumoniae) [µg/mL] | MIC (Haemophilus influenzae) [µg/mL] | MIC (Staphylococcus aureus) [µg/mL] | MIC (Clostridioides difficile) [µg/mL] | Compound |
| --- | --- | --- | --- | --- | --- |
| 0.25 (≈ 0.603 µM) | 0.25 (≈ 0.603 µM) | 1 (≈ 2.41 µM) | 0.5 (≈ 1.21 µM) | 0.125 (≈ 0.301 µM) | CCc1[nH]c(C(=O)N[C@@H]2CCN(c3nnc([C@H](C)O)s3)C[C@@H]2OC)nc1Cl |
| 0.25 (≈ 0.583 µM) | 0.25 (≈ 0.583 µM) | 0.5 (≈ 1.17 µM) | 0.25 (≈ 0.583 µM) | 0.06 (≈ 0.14 µM) | CCc1[nH]c(C(=O)N[C@@H]2CCN(c3nnc(C(C)(C)O)s3)C[C@@H]2OC)nc1Cl |
| 0.25 (≈ 0.583 µM) | 0.25 (≈ 0.583 µM) | 2 (≈ 4.66 µM) | 0.5 (≈ 1.17 µM) | 0.03 (≈ 0.0699 µM) | CCO[C@H]1CN(c2nnc(C(C)O)s2)CC[C@H]1NC(=O)c1nc(Cl)c(CC)[nH]1 (some centres undefined) |
| – | – | – | 1 (≈ 2.25 µM) | 0.06 (≈ 0.135 µM) | CCc1[nH]c(C(=O)N[C@@H]2CCN(c3nnc([C@@](C)(O)CO)s3)C[C@@H]2OC)nc1Cl |
| 0.25 (≈ 0.603 µM) | 0.25 (≈ 0.603 µM) | 1 (≈ 2.41 µM) | 0.5 (≈ 1.21 µM) | 0.06 (≈ 0.145 µM) | CCc1[nH]c(C(=O)N[C@@H]2CCN(c3nnc([C@@H](C)O)s3)C[C@@H]2OC)nc1Cl |
| – | – | – | 4 (≈ 9.28 µM) | 0.125 (≈ 0.29 µM) | CCc1[nH]c(C(=O)N[C@@H]2CCN(c3nnc([C@@H](O)CO)s3)C[C@@H]2OC)nc1Cl |

— ChEMBL document CHEMBL4020808, “Inhibitors of DNA Gyrase-GyrB Subunit and/or Topoisomerase IV-ParE Subunit May Treat Infectious Diseases Caused by Antibiotic-Resistant Bacteria” (2017)
